This passage reports IC50 results from US20250332173A1, “COMPOUNDS AND METHODS FOR MODULATING NUCLEIC ACID SPLICING” (REMIX THERAPEUTICS INC., priority 2021, published 2025).

Bounds are passed on as bounds.

For experiment [1], the system named is HTT. The experiment in a line: HiBiT protein abundance assay, HTT HiBiT K562 cell line. Format: cell-based, human. The following applies: HiBiT K562 cell line, 24 hours, top dose 10 μM; read-out: Effect on protein abundance, HTT (IC50 category). The gist of the method: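 K562 knock-in lines with endogenous HiBiT-tagged target, 10,000 cells/well in IMDM + FBS, treated 24 h at 37° C with 10-point 3-fold dilutions (top 10 μM final; DMSO ≤0.25%). Lytic Nano-Glo HiBiT luminescence normalized to untagged K562 baseline and DMSO controls; IC50 = concentration giving 50% abundance via four-parameter fit.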
In general terms: HiBiT is a short tag that completes a luciferase, so light tracks the accessible tagged protein.

Experiment [2] has as its system SMN2 mRNA. The experiment in a line: RT-qPCR splicing assay, SMN2 canonical junction (CJ) mRNA. Particulars: Homo sapiens; Table 5 panel; canonical junction qPCR; compound concentration having 50% response in CJ decrease; read-out: SMN2 IC50 (decrease in CJ mRNA levels). The class given is cell-based, human. The gist of the method: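 Exposure: 24 h, 37 °C, 11-point 3-fold dilutions from 10 uM final, DMSO at or below 0.25%, in A673 or K562 cells. Detection: cell-lysate RT-qPCR of canonical junction mRNA relative to GAPDH, GUSB or PPIA.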
For orientation: In qPCR the cycle at which signal appears reflects the starting amount.

In general, IC50 refers to the concentration that inhibits the measured activity by half. For the molecule `Cc1cn2cc(-c3cc(F)c4c(=O)n([C@H]5CCNC[C@@H]5F)cnc4c3)cc(F)c2n1` (relative stereo) [Compound 341, 5-fluoro-7-(8-fluoro-2-methylimidazo[1,2-a]pyridin-6-yl)-3-(trans-3-fluoropiperidin-4-yl)quinazolin-4(3H)-one], the values for the 50% inhibitory concentration (IC50) in experiment [1] and in experiment [2] were 1 to 10 µM and under 0.1 µM, respectively.
For `Cc1cn2cc(-c3cc(F)c4c(=O)n([C@H]5CCN[C@@H](C)C5)cnc4c3)cc(F)c2n1` (relative stereo) [Compound 343, cis-5-fluoro-7-(8-fluoro-2-methylimidazo[1,2-a]pyridin-6-yl)-3-(2-methylpiperidin-4-yl)quinazolin-4(3H)-one] the same measures were 0.1 to 1 µM and under 0.1 µM.
For `Cc1cn2nc(-c3cc(F)c4c(=O)n([C@H]5CCNC6(CC6)C5)cnc4c3)cc(C)c2n1` (single isomer, unassigned) [Compound 357] the same measures were under 0.1 µM and under 0.1 µM.
On to `CN1CCN(c2ccc3c(=O)n(-c4ccc5nn(C)cc5c4)cnc3c2)CC1` [Compound 152], for which the half-inhibitory concentration (IC50) in experiment [1] and in experiment [2] was over 10 µM in each case.
Consider `Cn1cc2cc(-n3cnc4cc(N5CCNCC5)ccc4c3=O)ccc2n1` [Compound 153], for which the IC50 is over 10 µM in experiment [1] and 1 to 10 µM in experiment [2].
On the same counts, the results for `Cc1cc(-c2ccc3c(=O)n(C4CCN(C)CC4)cnc3c2)cc2cn(C)nc12` [Compound 156] are 1 to 10 µM and 0.1 to 1 µM.
As to `Cc1cc(-c2ccc3c(=O)n(C4CC(C)(C)NC(C)(C)C4)cnc3c2)cc2cn(C)nc12` [Compound 157], the half-inhibitory concentration (IC50) in experiment [1] and in experiment [2] was 1 to 10 µM each time.
Consider `Cn1cc2cc(-n3cnc4cc(C5=CCNCC5)ccc4c3=O)ccc2n1` [Compound 158], for which the IC50 in experiment [1] and in experiment [2] was over 10 µM in each case.
With `CN1CC=C(c2ccc3c(=O)n(-c4ccc5nn(C)cc5c4)cnc3c2)CC1` [Compound 159], the IC50 in experiment [1] and in experiment [2] was over 10 µM throughout.
On to `CCN1CCC(n2ncc3cc(-c4cc(C)c5nc(C)cn5n4)ccc3c2=O)CC1` [Compound 266], for which the IC50 in experiment [1] and in experiment [2] was under 0.1 µM each time.
Turning to `Cc1cn2nc(-c3ccc4c(c3)CCN(C3CCNC(C)(C)C3)C4=O)cc(C)c2n1` (centres unmarked) [Compound 267], the concentration for half-maximal inhibition (IC50) in experiment [1] is 0.1 to 1 µM; in experiment [2], under 0.1 µM.
For `Cc1cn2nc(-c3ccc4c(c3)CCN(C3CCN(C)CC3)C4=O)cc(C)c2n1` [Compound 268], the IC50 in experiment [1] is 1 to 10 µM; in experiment [2], under 0.1 µM.
For `Cc1cn2nc(-c3ccc4c(c3)CCN(C3CCNC3)C4=O)cc(C)c2n1` (centres unmarked) [Compound 269] the same measures were over 10 µM and 1 to 10 µM.
As for `CCN1CCC(N2CCc3cc(-c4cc(C)c5nc(C)cn5n4)ccc3C2=O)CC1` [Compound 270], the IC50 in experiment [1] lay within 1 to 10 µM; in experiment [2], 0.1 to 1 µM.
In the case of `Cc1cn2nc(-c3ccc4c(=O)n(C5CCN(C)C5)ncc4c3)cc(C)c2n1` (centres unmarked) [Compound 271], the values for the IC50 in experiment [1] and in experiment [2] were 1 to 10 µM and 0.1 to 1 µM, respectively.
Regarding `Cc1cn2nc(-c3ccc4c(=O)n([C@@H]5CCN[C@H](C)C5)ncc4c3)cc(C)c2n1` [Compound 272], the IC50 in experiment [1] and in experiment [2] was under 0.1 µM throughout.
In the case of `Cc1cn2nc(-c3ccc4c(=O)n(C5CCNC6(CC6)C5)ncc4c3)cc(C)c2n1` (centres unmarked) [Compound 274], the IC50 in experiment [1] and in experiment [2] was under 0.1 µM each time.
Turning to `Cc1cn2cc(-c3ccc4c(=O)n(C5CCNCC5)ccc4c3)cc(F)c2n1` [Compound 276], the half-maximal inhibitory concentration (IC50) in experiment [1] and in experiment [2] was under 0.1 µM in each case.
For `Cc1cn2nc(-c3ccc4c(=O)n([C@@H]5CCN(C)[C@H](C)C5)ncc4c3)cc(C)c2n1` [Compound 277], the results for the IC50 in experiment [1] and in experiment [2] were 0.1 to 1 µM and under 0.1 µM, respectively.
`Cc1cn2nc(-c3ccc4c(=O)n([C@H]5CCN(C)[C@H](C)C5)ncc4c3)cc(C)c2n1` [Compound 278]: the IC50 in experiment [1] and in experiment [2] was under 0.1 µM in each case.
Regarding `Cc1cn2nc(-c3ccc4c(=O)n(C5CCNC(C)(C)C5)ncc4c3)cc(C)c2n1` (centres unmarked) [Compound 279], the half-inhibitory concentration (IC50) in experiment [1] and in experiment [2] was under 0.1 µM in each case.
On to `Cc1cn2nc(-c3ccc4c(=O)n([C@@H]5C[C@H]6CC[C@@H](C5)N6)ncc4c3)cc(C)c2n1` [Compound 280], for which the half-inhibitory concentration (IC50) in experiment [1] was 0.1 to 1 µM; in experiment [2] it was under 0.1 µM.
As to `Cc1cn2nc(-c3ccc4c(c3)CCN([C@@H]3CCN[C@H](C)C3)C4=O)cc(C)c2n1` [Compound 281], the half-maximal inhibitory concentration (IC50) lay within 1 to 10 µM in experiment [1] and 0.1 to 1 µM in experiment [2].
For `Cc1cn2nc(-c3ccc4c(c3)CCN(C3CCN(C)C3)C4=O)cc(C)c2n1` (centres unmarked) [Compound 282] the same measures were over 10 µM and 1 to 10 µM.
For `Cc1cn2nc(-c3ccc4c(=O)n(C5CCCNCC5)ncc4c3)cc(C)c2n1` (centres unmarked) [Compound 283] the same measures were under 0.1 µM and under 0.1 µM.
On the same counts, the results for `O=c1c2ccc(-c3cn[nH]c3)cc2ncn1C1CCNCC1` [Compound 284] are over 10 µM and 1 to 10 µM.
For the molecule `Cc1nc2c(F)cc(-c3ccc4c(=O)n(C5CCNCC5)cnc4c3)cc2s1` [Compound 285], the IC50 was 1 to 10 µM in experiment [1] and under 0.1 µM in experiment [2].
As for `Cc1cn2cc(-c3ccc4c(=O)n(C5CCNCC5)cnc4c3)nc2c(C)n1` [Compound 286], the IC50 in experiment [1] fell in the range of 1 to 10 µM; in experiment [2], 0.1 to 1 µM.
On the same counts, the results for `Cc1cn2nc(-c3ccc4c(=O)n(C5CCNCC5)cnc4c3)nc2c(C)n1` [Compound 287, 7-{6,8-dimethyl-[1,2,4]triazolo[1,5-a]pyrazin-2-yl}-3-(piperidin-4-yl)quinazolin-4-one] are 0.1 to 1 µM and under 0.1 µM.
Turning to `Cc1cn2nc(-c3ccc4c(=O)n(C5CCN(C)CC5)cnc4c3)nc2c(C)n1` [Compound 288, 7-{6,8-dimethyl-[1,2,4]triazolo[1,5-a]pyrazin-2-yl}1-3-(1-methylpiperidin-4-yl)quinazolin-4-one], the 50% inhibitory concentration (IC50) in experiment [1] and in experiment [2] was 1 to 10 µM in each case.
With `Cc1cn2nc(-c3ccc4c(=O)n(C5CCN(C)CC5)cnc4c3F)cc(C)c2n1` [Compound 290], the concentration for half-maximal inhibition (IC50) in experiment [1] and in experiment [2] was 0.1 to 1 µM in each case.
`Cc1cn2cc(-c3ccc4c(=O)n(C5CCNCC5)cnc4c3)cc(Cl)c2n1` [Compound 291]: the IC50 in experiment [1] was 0.1 to 1 µM; in experiment [2], under 0.1 µM.
Regarding `Cc1cn2cc(-c3ccc4c(=O)n(C5CCNCC5)cnc4c3)cc(C)c2n1` [Compound 292], the IC50 in experiment [1] was 0.1 to 1 µM; in experiment [2], under 0.1 µM.
On the same counts, the results for `Cc1cn2cc(-c3ccc4c(=O)n([C@@H]5CCN[C@@H](C)C5)cnc4c3)cc(F)c2n1` [Compound 293] are 0.1 to 1 µM and under 0.1 µM.
For `Cc1cn2cc(-c3ccc4c(=O)n(C5CCN[C@@H](C)C5)cnc4c3)cc(F)c2n1` (some centres unmarked) [Compound 294] the same measures were 0.1 to 1 µM and under 0.1 µM.
As for `Cc1cn2cc(-c3ccc4c(=O)n([C@@H]5CCN[C@H](C)C5)cnc4c3)cc(F)c2n1` [Compound 295], the IC50 in experiment [1] is 1 to 10 µM; in experiment [2], under 0.1 µM.
As for `Cc1cn2cc(-c3ccc4c(=O)n([C@H]5CCN[C@H](C)C5)cnc4c3)cc(F)c2n1` [Compound 296], the IC50 was 0.1 to 1 µM in experiment [1] and under 0.1 µM in experiment [2].
